Experimental data reported in patent US12318361B2, “Methods for treating cardiovascular diseases” (Olatec Therapeutics LLC, priority 2017, dated 2025).

Tests used:
[1] = tested on: mice, intra-articular zymosan arthritis model; test: Zymosan-induced knee joint arthritis in mice; type: in vivo; conditions: 600 mg/kg oral gavage, 5 doses, 24 h after zymosan
Experimental: Zymosan injected directly into the knee joint of mice elicits an inflammatory response and is used as a model of arthritis (Verschure et al, Ann. Rheum Dis. 53:455-460, 1994). Endpoints measured in this model include knee joint swelling score, cytokine levels in the synovial tissue and microscopic pathology of the knee.
Arthritis was induced in mice by intra-articular injection of zymosan (180 μg) into the knee joint (at time zero) of both knees in each mouse. Mice were treated by oral gavage with vehicle (saline, n=5) or dapansutrile (drug) in vehicle (600 mg/kg, n=4) at times −25 hr, −13 hr, and −1 hr. After zymosan injection at time zero, mice were further treated with vehicle or dapansutrile (600 mg/kg) at times +11 hr and +23 hr. Mice were terminated 24 hours after the zymosan injection.
Macroscopic joint swelling was assessed on all knees after the skin is removed using a scoring system ranging from 0 to 3, with 0 being no swelling and 3 being severe swelling.
In addition, synovial membrane was taken from one knee per mouse and the cells were lysed for measurement of mouse IL-1β, using an ELISA kit from R&D Systems, Inc., following manufacturer's protocols. The results are shown as mean ±standard error of mean and statistical evaluation is performed (see FIG. 2).

[2] = tested on: dogs, occlusive coronary thrombus formation; test: Thrombus formation in anesthetized dogs (anodal current to left circumflex coronary artery); type: in vivo; conditions: intravenous, about 30 min before anodal current; written in present tense
Experimental: To evaluate the effect of compound of Formula I or II on dynamic thrombus formation in vivo, the following experimental protocol, similar to the method of J. L. Romson et al. (Thromb. Res. 17:841-853, 1980), is performed.
Surgical Preparation and Instrumentation. Briefly, purpose-bred dogs are anesthetized, intubated and ventilated with room air. The heart is exposed by a left thoracotomy in the fifth intercostal space and suspended in a pericardial cradle. A 2-3 cm segment of the left circumflex coronary artery (LCCA) is isolated by blunt dissection. The artery is instrumented from proximal to distal with a flow probe, a stimulation electrode, and a Goldblatt clamp. The flow probe monitors the mean and phasic LCCA blood flow velocities. […]
Experimental Protocol: Dogs are randomized to one of four treatment protocols in which the control group receives saline intravenously and the three drug-treated groups are administered Rho kinase inhibitor compound intravenously. […] The number and frequency of cyclic flow variations (CFV) that precede formation of an occlusive thrombus are recorded. […]

SMILES: CS(=O)(=O)CCC#N [OLT1177™, 3-methanesulfonyl-propionitrile]
- level of IL-1β in synovial membrane ([1]; vs untreated mice): significantly reduced
- macroscopic joint swelling (score 0 to 3) ([1]; vs vehicle-treated mice): significant reduction
- number and frequency of cyclic flow variations that precede formation of an occlusive thrombus [2]: significantly increases
